{"source": "patent US6924309B2", "about": "(Children, Youth and Women's Health Service Incorporated, priority 1999, dated 2005)", "key": {"[1]": {"assay": "Stability of thia fatty acids and sulfides as thin film under oxygen (1H NMR)", "format": "physicochemical", "settings": "darkness, up to six weeks", "description": "Compounds 110 (4.3 mg) and 106 (6 mg) were each dissolved in 5 ml of dichloromethane and added into 250 ml one-neck flasks. Compound 18 (20 mg) and compounds 19, 108, 109 and 111-112 (14-20 mg) were each dissolved in 10 ml of dichloromethane and added into 500 ml flasks. The solvent dichloromethane was then evaporated with continuous rotation of the flasks, allowing the compounds to form thin films. The flasks were flushed with oxygen, sealed and kept in darkness. The compounds in the flasks were redissolved in chloroform-d and analysed by ^1H NMR every two weeks for up to six weeks.\nTo examine possible reasons for this lack of antioxidative activity, the chemical stability of compounds 18 and 109 in the absence of arachidonic acid was investigated. For comparison, the stability of compounds 19, 106, 108 and 110-112 was also examined. Each compound was studied as a thin film under oxygen as described above. Samples were removed and analysed by ^1H NMR spectroscopy regularly for up to six weeks. […] This is consistent with compound 109 decomposing in the presence of arachidonic acid, but not alone."}, "[2]": {"assay": "Petri-dish thin film autoxidation of arachidonic acid with thia fatty acids and sulfides (HPLC)", "summary_of_the_method": "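Arachidonic acid mixed with each sulfur compound at different ratios, lauric acid as internal standard, cast as thin films on 80 mm glass Petri-dishes. Dishes kept under oxygen in a dark desiccator; residual compounds quantified after 1, 2, 3, 5 and 7 days by reverse-phase HPLC with refractive index detection.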"}, "[3]": {"assay": "Thin film autoxidation of arachidonic acid with compounds 16-19 (HPLC)", "from_the_text": "Subsequently, the autoxidation of compounds 16-19 and their effects on the autoxidation of arachidonic acid were investigated. In these experiments, a thin film assay method was employed. For each reaction, arachidonic acid was mixed with one of the synthetic compounds 16, 17, 18 or 19 at 1:1 ratio with or without the radical initiator, azobisisobutyronitrile (AIBN). A reverse phase HPLC method was used to simultaneously measure the relative amounts of arachidonic acid and the synthetic compounds 16, 17, 18 or 19 recovered following 60 or 70 hours or 7 days of thin film autoxidation."}, "[4]": {"settings": "ratio arachidonic acid:compound 1:1, 1 day"}, "[5]": {"settings": "ratio arachidonic acid:compound 1:1, 2 days"}}}
{"smiles": "CCCCC/C=C\\C/C=C\\C/C=C\\C/C=C\\CCCCSCC(=O)O", "note": "[Compound 18, (all-Z)-(eicosa-5,8,11,14-tetraenylthio) acetic acid]", "values": [{"measurement": "Chemical stability in the absence of arachidonic acid", "setting": "[1]", "value": "decomposed after 7 days"}, {"measurement": "Antioxidant effect on autoxidation of arachidonic acid (in words)", "setting": "[2]", "value": "not significantly inhibited"}, {"measurement": "Arachidonic acid (%) recovered following autoxidation in the presence of the compound", "setting": "[2]; [4]", "value": 68, "unit": "%"}, {"measurement": "Compound (%) recovered following autoxidation with arachidonic acid", "setting": "[2]; [4]", "value": 26, "unit": "%"}, {"measurement": "Arachidonic acid (%) recovered following autoxidation in the presence of the compound", "setting": "[2]; [5]", "value": 29, "unit": "%"}, {"measurement": "Compound (%) recovered following autoxidation with arachidonic acid", "setting": "[2]; [5]", "value": 7, "unit": "%"}, {"measurement": "Arachidonic acid (%) recovered following autoxidation in the presence of the compound", "setting": "[2]; ratio arachidonic acid:compound 1:1, 3 days", "value": 10, "unit": "%"}, {"measurement": "Arachidonic acid (%) recovered following autoxidation in the presence of the compound", "setting": "[2]; ratio arachidonic acid:compound 1:1, 5 days", "value": 7, "unit": "%"}, {"measurement": "Arachidonic acid (%) recovered following autoxidation in the presence of the compound", "setting": "[2]; ratio arachidonic acid:compound 1:1, 7 days", "value": 5, "unit": "%"}, {"measurement": "Percentage of arachidonic acid recovered in the presence of the compound", "setting": "[3]; ratio 1:1, 10% AIBN 60 h", "value": 87, "unit": "%"}, {"measurement": "Percentage of compound recovered (with arachidonic acid)", "setting": "[3]; ratio 1:1, 10% AIBN 60 h", "value": 57, "unit": "%"}, {"measurement": "Percentage of arachidonic acid recovered in the presence of the compound", "setting": "[3]; ratio 1:1, no additive 70 h", "value": 98, "unit": "%"}, {"measurement": "Percentage of compound recovered (with arachidonic acid)", "setting": "[3]; ratio 1:1, no additive 70 h", "value": 99, "unit": "%"}, {"measurement": "Percentage of arachidonic acid recovered in the presence of the compound", "setting": "[3]; ratio 1:1, no additive 7 day", "value": 68, "unit": "%"}, {"measurement": "Percentage of compound recovered (with arachidonic acid)", "setting": "[3]; ratio 1:1, no additive 7 day", "value": 28, "unit": "%"}, {"measurement": "Autoxidation of arachidonic acid in the presence of the compound (in words)", "setting": "[3]; ratio 1:1, with or without AIBN", "value": "substantial degree of autoxidation"}]}
